{"source": "patent US9695155B2", "about": "“Herbicidal substituted pyrimidinyloxy benzene compounds” (E. I. DU PONT DE NEMOURS AND COMPANY, priority 2013, dated 2017)", "key": {"sedge, umbrella": {"test_system": "sedge, umbrella", "experiment": "Test B flooded paddy test", "format": "in vivo, Cyperus difformis", "conditions": "Cyperus difformis, Flood, 250 g ai/ha; 0 to 100 scale where 0 is no effect and 100 is complete control; read-out: Plant response rating, Sedge, Umbrella", "procedure,_shortened": "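Flooded to 3 cm at the 2-leaf stage, pots received compound through the paddy water and were kept at that depth under greenhouse conditions. After 13–15 days, effect was rated by eye relative to controls, 0 = none and 100 = complete control.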"}, "oilseed rape [1]": {"test_system": "oilseed rape", "experiment": "Test C preemergence", "format": "in vivo, Brassica napus", "conditions": "Brassica napus, pre-emergence", "procedure,_shortened": "(§1)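 Whole-plant greenhouse test with surfactant-containing solvent formulation, applied preemergence to sown loam–sand pots or postemergence to 2–18 cm plants. Scored by eye 13 to 15 days on, 0–100 scale.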"}, "waterhemp": {"test_system": "waterhemp", "experiment": "Test C preemergence", "format": "in vivo, Amaranthus rudis", "conditions": "Amaranthus tuberculatus, pre-emergence", "procedure,_shortened": "as §1"}, "soybean": {"test_system": "soybean", "experiment": "Test C preemergence", "format": "in vivo, Glycine max", "conditions": "Glycine max, pre-emergence", "procedure,_shortened": "as §1"}, "velvetleaf [2]": {"test_system": "velvetleaf", "experiment": "Test C postemergence", "format": "in vivo, Abutilon theophrasti", "conditions": "Abutilon theophrasti, post-emergence", "procedure,_shortened": "as §1"}, "johnsongrass": {"test_system": "johnsongrass", "experiment": "Test C preemergence", "format": "in vivo, Sorghum halepense", "conditions": "Sorghum halepense, pre-emergence", "procedure,_shortened": "as §1"}, "velvetleaf [3]": {"test_system": "velvetleaf", "experiment": "Test A preemergence", "format": "in vivo, Abutilon theophrasti", "procedure,_shortened": "(§2)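 Injury scores run from 0, no effect, to 100, complete control, judged by eye against untreated plants roughly 10 days after treatment. Chemicals carried a surfactant in a non-phytotoxic solvent and went onto loam–sand soil preemergence or onto one- to two-leaf seedlings postemergence.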"}, "barnyardgrass": {"test_system": "barnyardgrass", "experiment": "Test A postemergence", "format": "in vivo, Echinochloa crus-galli", "conditions": "Echinochloa crus-galli, post-emergence, 240 h", "procedure,_shortened": "as §2"}, "chickweed": {"test_system": "chickweed", "experiment": "Test C postemergence", "format": "in vivo, Stellaria media", "conditions": "Stellaria media, post-emergence", "procedure,_shortened": "as §1"}, "oilseed rape [4]": {"test_system": "oilseed rape", "experiment": "Test C postemergence", "format": "in vivo, Brassica napus", "conditions": "Brassica napus, post-emergence", "procedure,_shortened": "as §1"}}, "data": [{"smiles": "N#Cc1cccc(Oc2ncc(Cl)cn2)c1-n1cc(C(F)(F)F)cn1", "note": "[Compound 58, 3-[(5-chloro-2-pyrimidinyl)oxy]-2-[4-(trifluoromethyl)-1H-pyrazol-1-yl]benzonitrile]", "values": [{"measurement": "pest or weed control at 250 g/ha", "setting": "sedge, umbrella", "result": 90, "unit": "%"}, {"measurement": "plant injury at 62 g/ha", "setting": "oilseed rape [1]; 62 g ai/ha, preemergence, scale 0 (no effect) to 100 (complete control), read-out: Oilseed Rape plant response rating", "result": 100, "unit": "%"}, {"measurement": "plant injury at 125 g/ha", "setting": "oilseed rape [1]; 125 g ai/ha, preemergence, scale 0 (no effect) to 100 (complete control), read-out: Oilseed Rape plant response rating", "result": 100, "unit": "%"}, {"measurement": "plant injury at 250 g/ha", "setting": "oilseed rape [1]; 250 g ai/ha, preemergence, scale 0 (no effect) to 100 (complete control), read-out: Oilseed Rape plant response rating", "result": 100, "unit": "%"}, {"measurement": "plant injury at 31 g/ha", "setting": "oilseed rape [1]; Preemergence, 31 g ai/ha, scale 0 to 100, 0 no effect, 100 complete control, read-out: Plant response rating, Oilseed Rape", "result": 100, "unit": "%"}, {"measurement": "pest or weed control at 62 g/ha", "setting": "waterhemp; 62 g ai/ha, preemergence, scale 0 (no effect) to 100 (complete control), read-out: Waterhemp plant response rating", "result": 100, "unit": "%"}, {"measurement": "pest or weed control at 125 g/ha", "setting": "waterhemp; 125 g ai/ha, preemergence, scale 0 (no effect) to 100 (complete control), read-out: Waterhemp plant response rating", "result": 100, "unit": "%"}, {"measurement": "pest or weed control at 250 g/ha", "setting": "waterhemp; 250 g ai/ha, preemergence, scale 0 (no effect) to 100 (complete control), read-out: Waterhemp plant response rating", "result": 100, "unit": "%"}, {"measurement": "pest or weed control at 31 g/ha", "setting": "waterhemp; Preemergence, 31 g ai/ha, scale 0 to 100, 0 no effect, 100 complete control, read-out: Plant response rating, Waterhemp", "result": 100, "unit": "%"}, {"measurement": "plant injury at 62 g/ha", "setting": "soybean; 62 g ai/ha, preemergence, scale 0 (no effect) to 100 (complete control), read-out: Soybean plant response rating", "result": 95, "unit": "%"}, {"measurement": "plant injury at 125 g/ha", "setting": "soybean; 125 g ai/ha, preemergence, scale 0 (no effect) to 100 (complete control), read-out: Soybean plant response rating", "result": 98, "unit": "%"}, {"measurement": "plant injury at 250 g/ha", "setting": "soybean; 250 g ai/ha, preemergence, scale 0 (no effect) to 100 (complete control), read-out: Soybean plant response rating", "result": 98, "unit": "%"}, {"measurement": "plant injury at 31 g/ha", "setting": "soybean; Preemergence, 31 g ai/ha, scale 0 to 100, 0 no effect, 100 complete control, read-out: Plant response rating, Soybean", "result": 90, "unit": "%"}, {"measurement": "pest or weed control at 125 g/ha", "setting": "velvetleaf [2]; 125 g ai/ha, postemergence, read-out: Plant response rating (0 to 100), Velvetleaf", "result": 60, "unit": "%"}, {"measurement": "pest or weed control at 250 g/ha", "setting": "velvetleaf [2]; 250 g ai/ha, postemergence, read-out: Plant response rating (0 to 100), Velvetleaf", "result": 85, "unit": "%"}, {"measurement": "pest or weed control at 31 g/ha", "setting": "velvetleaf [2]; Postemergence, 31 g ai/ha, scale 0 to 100 (0 no effect, 100 complete control), 13 to 15 days, read-out: Plant response rating, Velvetleaf", "result": 45, "unit": "%"}, {"measurement": "pest or weed control at 62 g/ha", "setting": "velvetleaf [2]; Postemergence, 62 g ai/ha, scale 0 to 100 (0 no effect, 100 complete control), read-out: Plant response rating, Velvetleaf", "result": 50, "unit": "%"}, {"measurement": "pest or weed control at 62 g/ha", "setting": "johnsongrass; 62 g ai/ha, preemergence, scale 0 (no effect) to 100 (complete control), read-out: Johnsongrass plant response rating", "result": 100, "unit": "%"}, {"measurement": "pest or weed control at 125 g/ha", "setting": "johnsongrass; 125 g ai/ha, preemergence, scale 0 (no effect) to 100 (complete control), read-out: Johnsongrass plant response rating", "result": 100, "unit": "%"}, {"measurement": "pest or weed control at 250 g/ha", "setting": "johnsongrass; 250 g ai/ha, preemergence, scale 0 (no effect) to 100 (complete control), read-out: Johnsongrass plant response rating", "result": 100, "unit": "%"}, {"measurement": "pest or weed control at 31 g/ha", "setting": "johnsongrass; Preemergence, 31 g ai/ha, scale 0 to 100, 0 no effect, 100 complete control, read-out: Plant response rating, Johnsongrass", "result": 85, "unit": "%"}, {"measurement": "Plant response rating, Velvetleaf", "setting": "velvetleaf [3]; 125 g ai/ha, 0 to 100 scale where 0 is no effect and 100 is complete control", "result": 90}, {"measurement": "pest or weed control at 500 g/ha", "setting": "velvetleaf [3]; Abutilon theophrasti, pre-emergence, 240 h, 500 g ai/ha, 0 to 100 scale, 0 no effect, 100 complete control, approx. 10 days, read-out: Velvetleaf plant response rating", "result": 100, "unit": "%"}, {"measurement": "pest or weed control at 125 g/ha", "setting": "barnyardgrass; 125 g ai/ha, 0 to 100 scale where 0 is no effect and 100 is complete control, read-out: Plant response rating, Barnyardgrass", "result": 100, "unit": "%"}, {"measurement": "pest or weed control at 500 g/ha", "setting": "barnyardgrass; 500 g ai/ha, 0 to 100 scale, 0 no effect, 100 complete control, read-out: Plant response rating Barnyardgrass", "result": 100, "unit": "%"}, {"measurement": "pest or weed control at 125 g/ha", "setting": "chickweed; 125 g ai/ha, postemergence, read-out: Plant response rating (0 to 100), Chickweed", "result": 100, "unit": "%"}, {"measurement": "pest or weed control at 250 g/ha", "setting": "chickweed; 250 g ai/ha, postemergence, read-out: Plant response rating (0 to 100), Chickweed", "result": 100, "unit": "%"}, {"measurement": "pest or weed control at 31 g/ha", "setting": "chickweed; Postemergence, 31 g ai/ha, scale 0 to 100 (0 no effect, 100 complete control), 13 to 15 days, read-out: Plant response rating, Chickweed", "result": 95, "unit": "%"}, {"measurement": "pest or weed control at 62 g/ha", "setting": "chickweed; Postemergence, 62 g ai/ha, scale 0 to 100 (0 no effect, 100 complete control), read-out: Plant response rating, Chickweed", "result": 95, "unit": "%"}, {"measurement": "plant injury at 125 g/ha", "setting": "oilseed rape [4]; 125 g ai/ha, postemergence, read-out: Plant response rating (0 to 100), Oilseed Rape", "result": 85, "unit": "%"}, {"measurement": "plant injury at 250 g/ha", "setting": "oilseed rape [4]; 250 g ai/ha, postemergence, read-out: Plant response rating (0 to 100), Oilseed Rape", "result": 85, "unit": "%"}, {"measurement": "plant injury at 31 g/ha", "setting": "oilseed rape [4]; Postemergence, 31 g ai/ha, scale 0 to 100 (0 no effect, 100 complete control), 13 to 15 days, read-out: Plant response rating, Oilseed Rape", "result": 60, "unit": "%"}, {"measurement": "plant injury at 62 g/ha", "setting": "oilseed rape [4]; Postemergence, 62 g ai/ha, scale 0 to 100 (0 no effect, 100 complete control), read-out: Plant response rating, Oilseed Rape", "result": 70, "unit": "%"}]}]}
